Experimental data taken from US20220409620A1, “REDUCING IMMUNOGENICITY TO PEGLOTICASE” (Horizon Pharma Rheumatology LLC, priority 2016, published 2022).

Tested on: adult patients with uncontrolled gout
Assay: Serum uric acid (sUA) levels and sUA responder rate, open-label study of pegloticase with MTX (MIRROR OL)
Assay type: in vivo, human
Procedure: The primary objective is to estimate the response rate during Month 6 (Weeks 20, 22, and 24), as measured by the sustained normalization of serum uric acid (SUA) to <6 mg/dL for at least 80% of the time during Month 6 in subjects receiving KXX with MTX.
The primary efficacy outcome endpoint is the sustained normalization of SUA to <6 mg/dL for at least 80% of the time during month 6 (weeks 20, 22, and 24) in subjects receiving KXX with MTX. […] Participants who achieve this endpoint were classified as “responders.” Serum uric acid (SUA) responders may also be defined as participants achieving and maintaining SUA <6 mg/dL for at least 80% of the time during Month 6 (Weeks 20, 22, and 24).
Blood samples may be collected prior to each pegloticase infusion for measurement of SUA levels using the Beckman Coulter AU System Uric Acid procedure. Participants were declared “non-responders” if there were SUA measures >6 mg/dL at 2 consecutive study visits beginning with the week 2 visit. […] This assumption and subsequent discontinuation of pegloticase was consistent with the protocol of large phase III randomized controlled trials and the product label. A formal stopping rule was 2 occasions of SUA levels of greater than 6 mg/dL.
Clinical Chemistry—Blood samples were collected prior to each pegloticase infusion for measurement of SUA levels (primary efficacy parameter) using the Beckman Coulter AU System Uric Acid procedure. In this procedure uric acid is converted to hydrogen peroxide. Hydrogen peroxide reacts with reagent to produce a chromophore which is read bichromatically at 660/800 nm. The amount of dye formed is proportional to the uric acid concentration in the sample.
Serum samples for measurement of SUA levels were collected at the Screening Visit, the Week −4 Visit (prior to the first dose of MTX), and the Week −2 Visit during the MTX Run-in Period; within 48 hours prior to each pegloticase infusion and after the end of each pegloticase infusion prior to discharge from the site during the Pegloticase+IMM Period; at the non-infusion Week 52/End of Study/Early Termination Visits and at the Post Treatment 3 and 6 Month Follow-up Visits. Additional serum samples for SUA levels were collected at optional non-infusion (Frequent Sampling) Visits at Weeks 1 and 7. […] Subjects with SUA level >6 mg/dL at 2 consecutive visits beginning at Week 2 visit discontinued treatment, completed the End of Pegloticase Infusion Visit procedures within 2 weeks and continued the subject visits according to the protocol (without treatment).
Efficacy analyses were performed using the modified intention-to-treat (mITT) population, defined as all enrolled subjects who received ≥1 dose of pegloticase. The proportion of Month 6 responders was summarized, along with a 95% confidence interval for the proportion. The proportion of Month 3 and overall (Months 3 and 6 combined) responders was analyzed similarly.
A subject was declared a non-responder if the subject had SUA level >6 mg/dL at 2 consecutive study visits beginning with the Week 2 Visit. In addition, a subject who withdraws from study treatment for any reason after the first dose of pegloticase in the KXX+MTX Period and prior to Month 6 (for the primary endpoint) or Month 3 (for the secondary endpoint) was considered a non-responder if SUA values were not collected at the planned time points.
Patients were administered oral MTX (15 mg/week) and folate (1 mg/day) 4 weeks prior to the first pegloticase infusion (Day 1) and throughout the pegloticase treatment period. Blood was drawn prior to each infusion to measure sUA level, monitor clinical parameters, and examine for ADA development. All patients followed typical IR prophylaxis protocols (fexofenadine one day before and the morning of each infusion and acetaminophen and IV corticosteroid the morning of each infusion).

[1] = Month 6 sUA Responders, Week 48-Post-Infusion, n=3
[2] = Month 6 sUA Responders, Week 48-Pre-Infusion, n=2
[3] = Month 6 sUA Responders, Week 50-Post-Infusion, n=3
[4] = Month 6 sUA Responders, Week 50-Pre-Infusion, n=2
[5] = Month 6 sUA Responders, Week 52/ET, n=2
[6] = Week 2 - Post-Infusion, mITT Population
[7] = Week 2 - Pre-Infusion, mITT Population
[8] = Week 4 - Post-Infusion, mITT Population
[9] = Week 4 - Pre-Infusion, mITT Population
[10] = Week 6 - Post-Infusion, mITT Population
[11] = Week 6 - Pre-Infusion, mITT Population

## pegloticase
[1]
  Serum Uric Acid, Change from Baseline, Mean (SD): −10.33 (4.922) mg/dL
  Serum Uric Acid, Change from Baseline, Median: -9.80 mg/dL
  Serum Uric Acid, Observed, Mean (SD): 1.60 (2.252) mg/dL
  Serum Uric Acid, Observed, Median: 0.30 mg/dL
  sUA <6 mg/dL, n (%): 3 (100%)
[2]
  Serum Uric Acid, Change from Baseline, Mean (SD): −12.65 (4.031) mg/dL
  Serum Uric Acid, Change from Baseline, Median: -12.65 mg/dL
  Serum Uric Acid, Observed, Mean (SD): 0.30 (0.000) mg/dL
  Serum Uric Acid, Observed, Median: 0.30 mg/dL
  sUA <6 mg/dL, n (%): 2 (100%)
[3]
  Serum Uric Acid, Change from Baseline, Mean (SD): −10.57 (4.598) mg/dL
  Serum Uric Acid, Change from Baseline, Median: -9.80 mg/dL
  Serum Uric Acid, Observed, Mean (SD): 1.37 (1.848) mg/dL
  Serum Uric Acid, Observed, Median: 0.30 mg/dL
  sUA <6 mg/dL, n (%): 3 (100%)
[4]
  Serum Uric Acid, Change from Baseline, Mean (SD): −12.65 (4.031) mg/dL
  Serum Uric Acid, Change from Baseline, Median: -12.65 mg/dL
  Serum Uric Acid, Observed, Mean (SD): 0.30 (0.000) mg/dL
  Serum Uric Acid, Observed, Median: 0.30 mg/dL
  sUA <6 mg/dL, n (%): 2 (100%)
[5]
  Serum Uric Acid, Change from Baseline, Mean (SD): −12.65 (4.031) mg/dL
  Serum Uric Acid, Change from Baseline, Median: -12.65 mg/dL
  Serum Uric Acid, Observed, Mean (SD): 0.30 (0.000) mg/dL
  Serum Uric Acid, Observed, Median: 0.30 mg/dL
  sUA <6 mg/dL, n (%): 2 (100%)
Week 1, mITT Population
  Serum Uric Acid, Change from Baseline, Mean (SD): −7.28 (1.556) mg/dL
  Serum Uric Acid, Change from Baseline, Median: -7.75 mg/dL
  Serum Uric Acid, Observed, Mean (SD): 0.30 (0.000) mg/dL
  Serum Uric Acid, Observed, Median: 0.30 mg/dL
  sUA <6 mg/dL, n (%): 6 (100%)
[6]
  Serum Uric Acid, Change from Baseline, Mean (SD): −8.86 (2.486) mg/dL
  Serum Uric Acid, Change from Baseline, Median: -8.70 mg/dL
  Serum Uric Acid, Observed, Mean (SD): 0.30 (0.000) mg/dL
  Serum Uric Acid, Observed, Median: 0.30 mg/dL
  sUA <6 mg/dL, n (%): 14 (100%)
[7]
  Serum Uric Acid, Change from Baseline, Mean (SD): −7.90 (2.878) mg/dL
  Serum Uric Acid, Change from Baseline, Median: -8.70 mg/dL
  Serum Uric Acid, Observed, Mean (SD): 1.26 (2.163) mg/dL
  Serum Uric Acid, Observed, Median: 0.30 mg/dL
  sUA <6 mg/dL, n (%): 13 (92.9%)
[8]
  Serum Uric Acid, Change from Baseline, Mean (SD): −8.92 (2.577) mg/dL
  Serum Uric Acid, Change from Baseline, Median: -8.80 mg/dL
  Serum Uric Acid, Observed, Mean (SD): 0.30 (0.000) mg/dL
  Serum Uric Acid, Observed, Median: 0.30 mg/dL
  sUA <6 mg/dL, n (%): 13 (100%)
[9]
  Serum Uric Acid, Change from Baseline, Mean (SD): −7.54 (3.768) mg/dL
  Serum Uric Acid, Change from Baseline, Median: -8.00 mg/dL
  Serum Uric Acid, Observed, Mean (SD): 1.61 (2.637) mg/dL
  Serum Uric Acid, Observed, Median: 0.30 mg/dL
  sUA <6 mg/dL, n (%): 12 (85.7%)
[10]
  Serum Uric Acid, Change from Baseline, Mean (SD): −8.98 (2.679) mg/dL
  Serum Uric Acid, Change from Baseline, Median: -8.95 mg/dL
  Serum Uric Acid, Observed, Mean (SD): 0.30 (0.000) mg/dL
  Serum Uric Acid, Observed, Median: 0.30 mg/dL
  sUA <6 mg/dL, n (%): 12 (100%)
[11]
  Serum Uric Acid, Change from Baseline, Mean (SD): −8.31 (3.538) mg/dL
  Serum Uric Acid, Change from Baseline, Median: -8.80 mg/dL
  Serum Uric Acid, Observed, Mean (SD): 0.91 (2.191) mg/dL
  Serum Uric Acid, Observed, Median: 0.30 mg/dL
  sUA <6 mg/dL, n (%): 12 (92.3%)
Week 7, mITT Population
  Serum Uric Acid, Change from Baseline, Mean (SD): −8.90 (4.755) mg/dL
  Serum Uric Acid, Change from Baseline, Median: -7.85 mg/dL
